The record followed here is ChEMBL document CHEMBL3045487, “Bioactivity guided isolation of antiinflammatory, analgesic, and antipyretic constituents from the leaves of Pedilanthus tithymaloides (L.)” (Med Chem Res, 2013).

Data set [1] deals with Mus musculus. Description: Toxicity in Swiss albino Mus musculus (mouse) assessed as lethargy up to 100 mg/kg, po measured up to 24 hr relative to control. It counts as organism-based. Further details: dose 100 mg/kg, route oral. The note with it: in vivo.
Data set [2] concerns Mus musculus. Kind of data set: Toxicity in Swiss albino Mus musculus (mouse) assessed as weight loss up to 100 mg/kg, po measured up to 24 hr relative to control. The note with it: in vivo. Further details: dose 100 mg/kg, route oral. The class given is organism-based.
In data set [3] the test system is Mus musculus. Description: Toxicity in Swiss albino Mus musculus (mouse) assessed as effect on mobility up to 100 mg/kg, po measured up to 24 hr relative to control. The class given is organism-based. Further details: dose 100 mg/kg, route oral. The settings on record: in vivo.
Data set [4] concerns Rattus norvegicus. Kind of data set: Antipyretic activity in Wistar albino Rattus norvegicus (rat) assessed as brewer's yeast-induced rectal tempeRattus norvegicus (rat)ure at 10 mg/kg, po measured at 19 hr (reference value: 39.3 +/- 0.11 degC). It counts as functional.
Data set [5] has as its system Mus musculus. Description: Toxicity in Swiss albino Mus musculus (mouse) assessed as presence of secretions up to 100 mg/kg, po measured up to 24 hr relative to control. It counts as organism-based. Further details: dose 100 mg/kg, route oral. The note with it: in vivo.
In data set [6] the test system is Mus musculus. Kind of data set: Toxicity in Swiss albino Mus musculus (mouse) assessed as mortality up to 100 mg/kg, po measured up to 72 hr. Further details: dose 100 mg/kg, route oral. The settings on record: in vivo. The class given is organism-based.
In data set [7] the test system is Mus musculus. Kind of data set: Toxicity in Swiss albino Mus musculus (mouse) assessed as convulsions up to 100 mg/kg, po measured up to 24 hr relative to control. It counts as organism-based. Further details: dose 100 mg/kg, route oral. The settings on record: in vivo.
Data set [8] relates to Mus musculus. Description: Toxicity in Swiss albino Mus musculus (mouse) assessed as ataxia up to 100 mg/kg, po measured up to 24 hr relative to control. The class given is organism-based. Further details: dose 100 mg/kg, route oral. The settings on record: in vivo.
Data set [9] relates to Rattus norvegicus. Description: Antipyretic activity in Wistar albino Rattus norvegicus (rat) assessed as brewer's yeast-induced rectal temperature at 10 mg/kg, po measured at 22 hr (reference value: 39.1+/- 0.18 degC). The class given is functional.
The test system of data set [10] is Mus musculus. Kind of data set: Toxicity in Swiss albino Mus musculus (mouse) assessed as diarrhea up to 100 mg/kg, po measured up to 24 hr relative to control. It counts as organism-based. The note with it: in vivo. Also noted: dose 100 mg/kg, route oral.
Data set [11] concerns Rattus norvegicus. Kind of data set: Antipyretic activity in Wistar albino Rattus norvegicus (rat) assessed as brewer's yeast-induced rectal tempeRattus norvegicus (rat)ure at 10 mg/kg, po measured at 21 hr (reference value: 39.1+/- 0.18 degC). The class given is functional.
Data set [12] relates to Rattus norvegicus. Description: Antipyretic activity in Wistar albino Rattus norvegicus (rat) assessed as brewer's yeast-induced rectal tempeRattus norvegicus (rat)ure at 10 mg/kg, po measured at 23 hr (reference value: 39.1+/- 0.18 degC). It counts as functional.
Data set [13] deals with Mus musculus. Kind of data set: Anti-inflammatory activity in Swiss albino Mus musculus (mouse) assessed as inhibition of cotton pellet-induced granuloma formation at 10 mg/kg, po administered QD for 5 days measured at 1 hr post-last dose relative to control. It counts as functional.
For data set [14], the system named is Mus musculus. Description: Toxicity in Swiss albino Mus musculus (mouse) assessed as abdominal constriction up to 100 mg/kg, po measured up to 24 hr relative to control. The class given is organism-based, Abdomen. Further details: dose 100 mg/kg, route oral. The note with it: in vivo.
The test system of data set [15] is Mus musculus. Description: Toxicity in Swiss albino Mus musculus (mouse) assessed as tremors up to 100 mg/kg, po measured up to 24 hr relative to control. It counts as organism-based. Also noted: dose 100 mg/kg, route oral. The settings on record: in vivo.
Data set [16] relates to Rattus norvegicus. Description: Antipyretic activity in Wistar albino Rattus norvegicus (rat) assessed as brewer's yeast-induced rectal tempeRattus norvegicus (rat)ure at 10 mg/kg, po measured at 20 hr (reference value: 39.1+/- 0.18 degC). The class given is functional.
Data set [17] relates to Mus musculus. Description: Anti-inflammatory activity in Swiss albino Mus musculus (mouse) assessed as inhibition of carrageenan-induced paw edema at 10 mg/kg, ip administered 30 min prior to carrageenan-challenge measured after 3 to 4 hr relative to control. The class given is functional. The note with it: route intraperitoneal. A general note: The carrageenan paw model is a standard test of acute inflammation.

The subject of data set [18] is Mus musculus. Kind of data set: Antinociceptive activity Swiss albino Mus musculus (mouse) assessed as inhibition of formalin-induced paw licking at 10 mg/kg, po administered 60 min prior to formalin-challenge measured up to 5 min relative to control. The class given is functional.
In data set [19] the test system is Mus musculus. Kind of data set: Antinociceptive activity in Swiss albino Mus musculus (mouse) assessed as inhibition of acetic acid-induced writhing at 10 mg/kg, po administered 1 hr prior to acetic acid-challenge measured up to 20 min relative to control. It counts as functional.
Data set [20] concerns Mus musculus. Kind of data set: Antinociceptive activity Swiss albino Mus musculus (mouse) assessed as inhibition of formalin-induced paw licking at 10 mg/kg, po administered 60 min prior to formalin-challenge measured from 15 to 30 min relative to control. The class given is functional.
Data set [21] is filed under the species Mus musculus. Description: animal or person. The settings on record: Swiss albino, po, read-out: INH.
Description: Antinociceptive activity Swiss albino Mus musculus (mouse) assessed as inhibition of formalin-induced paw licking at 5 mg/kg, po administered 30 min prior to formalin-challenge measured up to 5 min relative to control
The species named for data set [22] is Mus musculus. Kind of data set: animal or person. The settings on record: Swiss albino, po, read-out: INH. This is another data set of the same source.
Description: Antinociceptive activity Swiss albino Mus musculus (mouse) assessed as inhibition of formalin-induced paw licking at 5 mg/kg, po administered 30 min prior to formalin-challenge measured from 15 to 30 min relative to control
Data set [23] concerns Rattus norvegicus. Kind of data set: Antipyretic activity in Wistar albino Rattus norvegicus (rat) assessed as brewer's yeast-induced rectal tempeRattus norvegicus (rat)ure at 150 mg/kg, po measured at 21 hr (reference value: 39.1+/- 0.18 degC). The class given is functional.
Data set [24] deals with Rattus norvegicus. Kind of data set: Antipyretic activity in Wistar albino Rattus norvegicus (rat) assessed as brewer's yeast-induced rectal tempeRattus norvegicus (rat)ure at 150 mg/kg, po measured at 19 hr (reference value: 39.3 +/- 0.11 degC). The class given is functional.
The test system of data set [25] is Rattus norvegicus. Kind of data set: Antipyretic activity in Wistar albino Rattus norvegicus (rat) assessed as brewer's yeast-induced rectal tempeRattus norvegicus (rat)ure at 150 mg/kg, po measured at 20 hr (reference value: 39.1+/- 0.18 degC). The class given is functional.
Data set [26] deals with Rattus norvegicus. Kind of data set: Antipyretic activity in Wistar albino Rattus norvegicus (rat) assessed as brewer's yeast-induced rectal tempeRattus norvegicus (rat)ure at 150 mg/kg, po measured at 23 hr (reference value: 39.1+/- 0.18 degC). It counts as functional.
The test system of data set [27] is Rattus norvegicus. Description: Antipyretic activity in Wistar albino Rattus norvegicus (rat) assessed as brewer's yeast-induced rectal tempeRattus norvegicus (rat)ure at 150 mg/kg, po measured at 22 hr (reference value: 39.1+/- 0.18 degC). The class given is functional.
Data set [28] deals with Mus musculus. Kind of data set: Antinociceptive activity Swiss albino Mus musculus (mouse) assessed as inhibition of formalin-induced paw licking at 10 mg/kg, po administered 30 min prior to formalin-challenge measured up to 5 min relative to control. The class given is functional.
The test system of data set [29] is Mus musculus. Kind of data set: Antinociceptive activity Swiss albino Mus musculus (mouse) assessed as inhibition of formalin-induced paw licking at 10 mg/kg, po administered 30 min prior to formalin-challenge measured from 15 to 30 min relative to control. It counts as functional.
Data set [30] deals with Mus musculus. Description: Anti-inflammatory activity in Swiss albino Mus musculus (mouse) assessed as inhibition of carrageenan-induced paw edema at 10 mg/kg, ip administered 30 min prior to carrageenan-challenge measured after 5 hr relative to control. The class given is functional. The note with it: route intraperitoneal.

Each structure is given as a SMILES string.

For `CC[C@H](CC[C@@H](C)[C@H]1CC[C@H]2[C@@H]3CC=C4C[C@@H](O)CC[C@]4(C)[C@H]3CC[C@]12C)C(C)C` [BETA-SITOSTEROL], the Activity entry in [1], in [2], in data set [3], in data set [5], in [6] and in [7] was “Non-toxic” throughout. For the same compound, the Activity entry in data set [8], in data set [10], in data set [14] and in [15] was “Non-toxic” in each case. Further, the T amounted to 39.6 °C in [4]; 38 °C in data set [9]; 38.1 °C in [11]; 37.9 °C in data set [12]; 38.1 °C in data set [16]. In addition, in data set [13], the inhibition in vivo at 10 mg/kg was 30.4%.

As for `CC(=O)O[C@H]1CC[C@@H]2[C@](C)(CC[C@H]3[C@@]2(C)CC[C@@]2(C)[C@H]4CC(C)(C)CC[C@]4(C)CC[C@]32C)[C@H]1C` [EPIFRIEDELANYL ACETATE], the inhibition in vivo at 10 mg/kg in data set [17] worked out at 30.6%; in [13] it was 24.9%. Besides, the Activity result in [1], in [2], in data set [3], in data set [5], in data set [6] and in data set [7] was “Non-toxic” in each case. The Activity result in data set [8], in data set [10], in data set [14] and in [15] was “Non-toxic” in each case.

Take `C[C@H]1[C@H](O)CC[C@@H]2[C@]1(C)CC[C@H]1[C@@]2(C)CC[C@@]2(C)[C@H]3CC(C)(C)CC[C@]3(C)CC[C@]12C` [FRIEDELANOL]: the inhibition in vivo at 10 mg/kg in [17] amounted to 36.1%; in [18] it was 35.7%; in data set [19], 45.8%; in [20], 42.9%; in [13], 29.2%. For the same compound, the Activity entry in [1], in data set [2], in data set [3], in data set [5], in data set [6] and in data set [7] was “Non-toxic” throughout. The Activity result in [8], in data set [10], in data set [14] and in data set [15] was “Non-toxic” each time.

Take `C[C@H]1[C@H](C)CC[C@]2(C(=O)O)CC[C@]3(C)C(=CC[C@@H]4[C@@]5(C)CC[C@H](O)C(C)(C)[C@@H]5CC[C@]43C)[C@H]12` [URSOLIC ACID]: the Activity result in data set [1], in data set [2], in [3], in [5], in data set [6] and in data set [7] was “Non-toxic” each time. Also, the Activity result in [8], in [10], in data set [14] and in data set [15] was “Non-toxic” throughout. In addition, the inhibition in vivo at 10 mg/kg in [18] amounted to 43.6%; in data set [19] it was 50.3%; in data set [20] it was 61.4%; in data set [13], 38.5%.

As to `CN1CC[C@]23c4c5ccc(O)c4O[C@H]2[C@@H](O)C=C[C@H]3[C@H]1C5` [MORPHINE], the figures for the inhibition in vivo at 5 mg/kg in data set [21] and in [22] were 68% and 100%, respectively.

For `CCCCCCCCCCCCC(O)COS(=O)(=O)[O-].[Na+]` (stereo unspecified), the inhibition in vivo at 10 mg/kg in [17] stood at 33.3%; in data set [13], 12.9%. Further, the Activity entry in data set [1], in data set [2], in [3], in data set [5], in [6] and in [7] was “Non-toxic” throughout. In addition, the Activity result in [8], in data set [10], in data set [14] and in [15] was “Non-toxic” in each case.

Regarding `CC(=O)Nc1ccc(O)cc1` [ACETAMINOPHEN], the T is 38 °C in data set [23]; 39.6 °C in data set [24]; 38 °C in [25]; 37.7 °C in data set [26]; 37.9 °C in data set [27].

On to `O=C(O)Cc1ccccc1Nc1c(Cl)cccc1Cl` [DICLOFENAC SODIUM], for which the inhibition in vivo at 10 mg/kg in [28] was found to be 20.1%; in [29], 97.6%; in data set [19], 90.9%.

As to `COc1ccc2c(c1)c(CC(=O)O)c(C)n2C(=O)c1ccc(Cl)cc1` [INDOMETHACIN], the inhibition in vivo at 10 mg/kg in [30] stood at 61.1%; in [13] it was 45.5%.

For the compound `O=c1cc(-c2ccc(O)c(O)c2)oc2cc(O)cc(O)c12` [LUTEOLIN], the inhibition in vivo at 10 mg/kg was found to be 50% in [30]; 40.3% in [18]; 55.4% in data set [19]; 48.6% in [20]; 37% in data set [13]. Besides, the Activity result in [1], in data set [2], in data set [3], in [5], in [6] and in data set [7] was “Non-toxic” in each case. The Activity entry in data set [8], in [10], in [14] and in [15] was “Non-toxic” in each case.
